Measured values as given in the METLIN SMRT retention time set (Domingo-Almenara et al. 2019).

Assay: gradient 5% acetonitrile 3 min, to 50% in 2 min, to 85% in 15 min, held 3 min, 100 µL/min
Conditions: column: Zorbax Extend-C18 2.1 x 50 mm; eluents: water / acetonitrile, 0.1% formic acid
In short: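 Retention times come from adduct peaks that were picked computationally and then checked by hand. The standards, pure and pooled in mixtures of ~100 molecules, were run on a Zorbax Extend-C18 column (2.1 × 50 mm, 1.8 μm) at 100 μL/min with water and acetonitrile, each with 0.1% formic acid. Detection was by quadrupole time-of-flight mass spectrometry in positive and negative ionization mode, with a dead volume of 40 μL and a dwell volume of 900 μL.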

Row | SMILES | RP-LC retention time
1 | COc1cccc(CN2CCC3(CC2)CN(c2ncccn2)CC3CO)n1 (configuration not stated) | 562 s
2 | Cc1ccc(Cn2c(N3CCCC(C(=O)Nc4ccc(Cl)cc4)C3)nc3ccsc3c2=O)cc1 (configuration not stated) | 1160 s
3 | C[C@@H](c1ncncc1F)[C@@](O)(Cn1cncn1)c1ccc(F)cc1F | 870 s
4 | CCCN(CC1CCOC1)C(=O)Nc1ccc(OC)c(F)c1 (configuration not stated) | 777 s
5 | O=C(NC1CCCCCC1)c1cn(-c2ccc(-c3nc(C4CC4)no3)cn2)cn1 | 1010 s
6 | COCCN1CC(CO)C2(CCN(Cc3ccc(F)c(Cl)c3)CC2)C1 (configuration not stated) | 550 s
7 | COc1ccc(CNC(=O)Cn2c(=O)c3cc(C4CC4)nn3c3ncccc32)cc1 | 742 s
8 | COc1ccc2[nH]cc(CCN3CC(C(=O)Nc4ccc(Cl)cc4)CC3=O)c2c1 (configuration not stated) | 829 s
9 | O=C(c1cnn2c1CCCC2)N1CCCC1 | 614 s
10 | O=C(O)C1CCN(c2nc3ccc(-c4ccncc4)nc3s2)CC1 | 588 s
11 | COc1ccc(OC)c(Nc2nc(NCC3CCCO3)nc(N)c2[N+](=O)[O-])c1 (configuration not stated) | 810 s
12 | CNC(=O)c1cc[nH]c1C1CCCN(C(=O)c2ccc(Br)o2)C1 (configuration not stated) | 674 s
13 | O=C(Nc1ccc(Cl)c(Cl)c1)N1CC(c2nc(-c3cnccn3)no2)C1 | 746 s
14 | CC(C)NC(=O)CSc1nnc2c3cc(-c4ccc(F)cc4)nn3ccn12 | 735 s
15 | CCn1cnc(S(=O)(=O)N2CCCC(C(=O)NCCN3CCCCCC3)C2)c1 (configuration not stated) | 583 s
16 | Cc1cc(C)c(C)c(S(=O)(=O)N2CCC(F)(c3nc(CC(C)C)no3)CC2)c1C | 1410 s
17 | Cc1cc2nc(C(F)(F)F)c(=O)n(C(C)C(=O)N3CCN(c4ccccn4)CC3)c2cc1C (configuration not stated) | 796 s
18 | Nc1cc(C2CCN(C(=O)COc3ccc(F)cc3)CC2)no1 | 656 s
19 | CCc1ccc(-c2cn3cc(C(=O)N4CCCN(C)CC4)ccc3n2)cc1 | 570 s
20 | COc1ccc(OC)c(S(=O)(=O)N2CCCC(C(=O)NCCC(C)C)C2)c1 (configuration not stated) | 863 s
21 | CCCCn1c(=O)c2ccccc2n(Cc2nc(-c3ccc(OC(C)C)cc3)no2)c1=O | 1290 s
22 | CCC(=O)NCc1nc2c(n1CC)CN(C(=O)c1cc(C)cc(C)c1)CC2 | 620 s
23 | COc1cc(Cl)ccc1C(=O)N1CCN(c2cc(-c3ccc(Cl)cc3)[nH]n2)CC1 | 923 s

Continued, values first:

Row | RP-LC retention time | SMILES
24 | 784 s | Cc1ccc(-c2nnc(-c3cccc(S(=O)(=O)NC(C)C(=O)O)c3)o2)cc1 (configuration not stated)
25 | 776 s | O=C(O)c1ccccc1C(=O)Nc1cccc([N+](=O)[O-])c1
26 | 1060 s | Fc1cccc(-c2nnc(-c3ccccc3Cl)o2)c1
27 | 741 s | Cc1ccccc1OCC(=O)NCC1CC(=O)N(c2ccccc2)C1 (configuration not stated)
28 | 864 s | Cc1ccc2nc(-c3ccc(NC(=O)c4cc5cccnc5n(C)c4=O)cc3)sc2c1
29 | 976 s | CCOc1ccc(NC(=O)c2cc(C)n3nc(C)cc3n2)cc1
30 | 827 s | Cc1cccc(C(=O)NCCc2cn(CC(C)C)c3ncccc23)c1
31 | 769 s | O=C(Nc1ccccc1)C1CCCN(S(=O)(=O)c2c[nH]c(C(=O)N3CCCC3)c2)C1 (configuration not stated)
32 | 662 s | COCC(=O)N1CCCc2ccc(NC(=O)NCc3cccs3)cc21
33 | 625 s | O=C(NCC(c1ccco1)N1CCN(c2ccccc2)CC1)Oc1ccccc1 (configuration not stated)
34 | 768 s | CC(=O)N1CCc2sc(C(=O)NCc3cccc(Br)c3)cc2C1
35 | 699 s | O=C(NC1CCN(c2cc(-c3ccc(F)cc3)[nH]n2)C1)c1cccs1 (configuration not stated)
36 | 869 s | COc1ccc(NC(=O)CN2C(=O)C(C)(C)c3ccccc32)c(OC)c1
37 | 811 s | Cc1cccc(Nc2ncccc2S(N)(=O)=O)c1
